# Activity calls are given as the source filed them.
# How the values were obtained:
# [1] = target: Mothers against decapentaplegic homolog 3 (Homo sapiens, UniProt P84022); assay: Smad3 binding inhibitors, lysate ELISA, dose response, cell lysate, secondary confirmation, chemiluminescent ELISA, HEK293 lysate (AID 1058); type: functional
# [2] = system: HeLa; assay: HeLa cell cytotoxicity, dose response, cytotoxicity control, 24 h, cherry-picked samples (AID 504726); type: functional, cell-based; conditions: Homo sapiens;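 further: potency for cytotoxicity as loss of luminescence signal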
# [3] = target: T1, Eukaryotic translation initiation factor 2-alpha kinase 3 (Homo sapiens, UniProt Q9NZJ5); assay: Dose response cell-based high-throughput screening assay to measure PERK inhibition. [Related pubchem assays: 1416 ]; type: functional
# T1 sequence (Q9NZJ5 whole entry): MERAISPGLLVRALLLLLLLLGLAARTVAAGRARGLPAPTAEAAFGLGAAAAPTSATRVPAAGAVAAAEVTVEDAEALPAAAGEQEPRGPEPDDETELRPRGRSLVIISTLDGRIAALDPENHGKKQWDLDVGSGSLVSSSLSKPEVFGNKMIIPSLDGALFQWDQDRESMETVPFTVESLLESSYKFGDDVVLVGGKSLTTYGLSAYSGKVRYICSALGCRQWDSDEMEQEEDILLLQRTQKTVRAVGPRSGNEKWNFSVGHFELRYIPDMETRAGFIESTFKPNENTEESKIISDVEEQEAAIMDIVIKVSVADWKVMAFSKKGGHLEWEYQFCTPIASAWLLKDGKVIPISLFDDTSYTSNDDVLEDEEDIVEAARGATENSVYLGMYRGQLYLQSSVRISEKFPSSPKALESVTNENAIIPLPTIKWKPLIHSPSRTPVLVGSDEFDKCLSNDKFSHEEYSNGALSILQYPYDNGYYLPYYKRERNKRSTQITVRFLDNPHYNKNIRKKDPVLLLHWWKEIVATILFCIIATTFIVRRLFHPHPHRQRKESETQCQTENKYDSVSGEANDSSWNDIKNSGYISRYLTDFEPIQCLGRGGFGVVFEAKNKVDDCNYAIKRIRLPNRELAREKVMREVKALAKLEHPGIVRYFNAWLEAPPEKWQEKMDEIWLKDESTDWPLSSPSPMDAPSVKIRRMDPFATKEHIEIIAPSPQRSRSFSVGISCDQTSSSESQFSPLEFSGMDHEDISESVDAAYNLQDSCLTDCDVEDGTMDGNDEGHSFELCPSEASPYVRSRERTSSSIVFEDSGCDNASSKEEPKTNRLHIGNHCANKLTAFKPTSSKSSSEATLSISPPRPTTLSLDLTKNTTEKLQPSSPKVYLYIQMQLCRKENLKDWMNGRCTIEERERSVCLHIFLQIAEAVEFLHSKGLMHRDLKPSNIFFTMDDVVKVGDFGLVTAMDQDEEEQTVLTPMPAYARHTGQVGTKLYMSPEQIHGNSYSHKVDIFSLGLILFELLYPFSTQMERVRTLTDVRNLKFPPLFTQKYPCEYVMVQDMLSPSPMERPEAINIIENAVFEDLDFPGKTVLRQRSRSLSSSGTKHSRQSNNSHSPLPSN
# [4] = target: T1, Eukaryotic translation initiation factor 2-alpha kinase 3; assay: Counterscreen assay for PERK inhibitors: Dose response cell-based high throughput screening assay to measure inhibition of PERK at 6 hours. [Related pubchem assays: 1522, 1416 ]; type: functional
# [5] = target: T2, Hexokinase HKDC1 (Homo sapiens, UniProt Q2TB90); assay: HKDC1 hexokinase inhibitors, dose response, biochemical, W721R variant (AID 504729); type: functional
# T2 sequence (Q2TB90 whole entry): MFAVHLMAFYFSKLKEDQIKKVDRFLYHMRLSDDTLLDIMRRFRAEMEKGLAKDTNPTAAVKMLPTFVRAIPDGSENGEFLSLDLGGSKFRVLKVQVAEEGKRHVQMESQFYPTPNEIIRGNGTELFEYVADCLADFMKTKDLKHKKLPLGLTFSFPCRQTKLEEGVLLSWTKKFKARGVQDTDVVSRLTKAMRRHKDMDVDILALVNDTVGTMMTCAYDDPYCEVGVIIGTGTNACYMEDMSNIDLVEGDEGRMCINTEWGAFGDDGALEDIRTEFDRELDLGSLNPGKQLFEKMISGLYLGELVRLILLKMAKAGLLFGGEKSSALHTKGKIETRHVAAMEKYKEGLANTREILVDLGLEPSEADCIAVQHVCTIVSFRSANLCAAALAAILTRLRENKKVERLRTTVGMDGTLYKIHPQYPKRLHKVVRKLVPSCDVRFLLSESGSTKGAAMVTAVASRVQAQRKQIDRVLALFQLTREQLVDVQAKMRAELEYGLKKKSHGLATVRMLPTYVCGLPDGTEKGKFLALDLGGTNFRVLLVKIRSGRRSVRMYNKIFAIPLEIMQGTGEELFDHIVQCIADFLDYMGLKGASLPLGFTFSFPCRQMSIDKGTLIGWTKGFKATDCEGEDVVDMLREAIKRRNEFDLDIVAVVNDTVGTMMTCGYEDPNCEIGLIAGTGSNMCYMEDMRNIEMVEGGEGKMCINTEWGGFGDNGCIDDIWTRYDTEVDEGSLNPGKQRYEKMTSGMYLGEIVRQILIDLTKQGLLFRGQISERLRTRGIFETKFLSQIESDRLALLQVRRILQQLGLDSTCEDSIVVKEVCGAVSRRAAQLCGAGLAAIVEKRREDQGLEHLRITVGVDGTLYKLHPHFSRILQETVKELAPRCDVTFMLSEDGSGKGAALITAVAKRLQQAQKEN
# [6] = system: Streptococcus sp. 'group A'; assay: growth inhibition of control SK(-) GAS strain, dose response, counter-screen for streptokinase expression inhibitor project, luminescence, kanamycin, BacTiterGlo, confirmation (AID 1900); type: functional, organism-based
# [7] = target: T3, Streptokinase A (Streptococcus pyogenes serotype M1, UniProt P10520); assay: S. pyogenes streptokinase expression inhibitors, potency, dose response, plasminogen activation absorbance, OD405 (AID 1914); type: functional, Streptococcus pyogenes M1 GAS;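 further: secreted streptokinase activity via plasminogen activation per viability signal from cell pellet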
# T3 sequence (P10520 whole entry): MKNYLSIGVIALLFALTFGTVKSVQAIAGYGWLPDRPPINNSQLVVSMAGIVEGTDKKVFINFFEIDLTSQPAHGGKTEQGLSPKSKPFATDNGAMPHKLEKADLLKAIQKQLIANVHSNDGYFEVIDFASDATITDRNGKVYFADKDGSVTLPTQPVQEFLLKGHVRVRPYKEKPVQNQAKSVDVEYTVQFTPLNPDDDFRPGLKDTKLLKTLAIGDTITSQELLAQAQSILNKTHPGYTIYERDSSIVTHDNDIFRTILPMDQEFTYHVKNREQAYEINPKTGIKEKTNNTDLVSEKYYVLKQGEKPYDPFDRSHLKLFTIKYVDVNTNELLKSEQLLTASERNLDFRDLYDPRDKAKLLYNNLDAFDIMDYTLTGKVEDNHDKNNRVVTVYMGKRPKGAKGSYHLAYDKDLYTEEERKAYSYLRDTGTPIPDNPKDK
# [8] = system: Streptococcus; assay: Group A Streptococcus viability loss, dose response, counter-screen for streptokinase expression inhibitor project, luminescence, BacTiterGlo (AID 1915); type: functional, organism-based;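 further: potency for reduction of bacterial viability or growth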
# [9] = A375 melanoma cell viability loss, dose response, counter-screen for MITF inhibitor project, CellTiter-Glo luminescence, dry powder, set 4 (AID 624364); type: functional, cell-based; conditions: A-375;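 further: A375 melanoma cells are MITF independent so this is a counter screen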
# [10] = Luminescence Cell-Based Dose Retest to Confirm Inhibitors of Cancer Stem Cells. [Related pubchem assays (depositor defined):AID2717, AID2721]; type: functional; conditions: Homo sapiens
# [11] = A Cell Based Secondary Assay To Explore Cytotoxicity of Compounds that Sensitize Mycobacterium Tuberculosis to Beta-Lactam Antibiotics.; type: functional
# [12] = A375 melanoma cell cytotoxicity, dose response, counter-screen for MITF inhibitor project, CellTiter-Glo luminescence, dry powder, set 2 (AID 624489); type: functional, cell-based; conditions: A-375;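 further: actives are compounds lowering A375 viability meaning general cytotoxicity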
# [13] = target: T4, Microphthalmia-associated transcription factor (Homo sapiens, UniProt O75030); assay: TRPM1 promoter luciferase signal decrease, dose response, MITF inhibitor project, cell-based, SK-MEL-5, cherry-picked, set 3 (AID 493073); type: functional
# T4 sequence (O75030 whole entry): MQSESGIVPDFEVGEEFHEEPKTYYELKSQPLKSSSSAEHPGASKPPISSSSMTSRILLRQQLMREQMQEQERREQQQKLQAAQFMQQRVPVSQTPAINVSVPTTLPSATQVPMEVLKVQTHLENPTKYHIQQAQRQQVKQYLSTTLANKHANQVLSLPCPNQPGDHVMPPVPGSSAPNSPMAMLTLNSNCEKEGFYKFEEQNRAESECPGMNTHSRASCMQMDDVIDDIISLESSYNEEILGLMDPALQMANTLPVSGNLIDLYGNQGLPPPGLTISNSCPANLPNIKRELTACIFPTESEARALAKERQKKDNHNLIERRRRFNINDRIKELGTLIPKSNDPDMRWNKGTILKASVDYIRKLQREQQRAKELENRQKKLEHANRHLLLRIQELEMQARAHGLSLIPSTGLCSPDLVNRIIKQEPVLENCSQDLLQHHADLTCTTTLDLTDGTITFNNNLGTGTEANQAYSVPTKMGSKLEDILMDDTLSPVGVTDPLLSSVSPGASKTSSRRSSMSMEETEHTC
# [14] = target: T5, Alkaline phosphatase, tissue-nonspecific isozyme (Homo sapiens, UniProt P05186)
# T5 sequence (P05186 whole entry): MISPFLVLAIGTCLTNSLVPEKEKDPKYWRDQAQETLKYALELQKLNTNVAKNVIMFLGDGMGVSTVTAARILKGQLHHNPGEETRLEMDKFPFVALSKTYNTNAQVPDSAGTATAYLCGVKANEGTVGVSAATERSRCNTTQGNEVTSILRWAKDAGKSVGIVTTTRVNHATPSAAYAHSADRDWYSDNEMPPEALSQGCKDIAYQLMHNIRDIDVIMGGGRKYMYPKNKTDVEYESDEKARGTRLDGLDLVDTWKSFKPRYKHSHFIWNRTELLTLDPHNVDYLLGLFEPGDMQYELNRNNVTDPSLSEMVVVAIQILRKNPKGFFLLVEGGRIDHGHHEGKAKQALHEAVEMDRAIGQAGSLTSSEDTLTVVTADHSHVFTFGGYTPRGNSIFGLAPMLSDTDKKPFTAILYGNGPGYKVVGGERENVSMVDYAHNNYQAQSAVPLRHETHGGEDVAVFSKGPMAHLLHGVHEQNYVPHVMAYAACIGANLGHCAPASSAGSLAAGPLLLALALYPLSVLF
# [15] = target: Cytochrome P450 2C19 (Homo sapiens, UniProt P33261); assay: Cytochrome panel assay with activity outcomes. Panel member name: p450-cyp2c19 Compounds with AC50 equal or less than 10 uM are considered active; type: functional; conditions: read-out: AC50
# Chain of Cytochrome P450 2C19 (P33261 whole entry): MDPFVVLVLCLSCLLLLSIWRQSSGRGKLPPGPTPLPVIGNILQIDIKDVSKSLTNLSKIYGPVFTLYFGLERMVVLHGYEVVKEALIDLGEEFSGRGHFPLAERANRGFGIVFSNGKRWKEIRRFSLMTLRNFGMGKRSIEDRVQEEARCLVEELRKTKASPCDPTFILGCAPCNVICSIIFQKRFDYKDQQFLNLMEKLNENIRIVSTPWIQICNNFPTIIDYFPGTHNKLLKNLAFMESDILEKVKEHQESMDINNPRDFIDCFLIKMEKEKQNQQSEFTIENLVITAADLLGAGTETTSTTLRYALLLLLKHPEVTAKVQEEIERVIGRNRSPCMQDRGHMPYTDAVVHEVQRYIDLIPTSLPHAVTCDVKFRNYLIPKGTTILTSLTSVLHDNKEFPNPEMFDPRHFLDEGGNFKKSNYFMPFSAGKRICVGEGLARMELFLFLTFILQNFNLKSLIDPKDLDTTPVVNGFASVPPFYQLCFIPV
# [16] = target: Cytochrome P450 2C9 (Homo sapiens, UniProt P11712)
# Chain of Cytochrome P450 2C9 (P11712 whole entry): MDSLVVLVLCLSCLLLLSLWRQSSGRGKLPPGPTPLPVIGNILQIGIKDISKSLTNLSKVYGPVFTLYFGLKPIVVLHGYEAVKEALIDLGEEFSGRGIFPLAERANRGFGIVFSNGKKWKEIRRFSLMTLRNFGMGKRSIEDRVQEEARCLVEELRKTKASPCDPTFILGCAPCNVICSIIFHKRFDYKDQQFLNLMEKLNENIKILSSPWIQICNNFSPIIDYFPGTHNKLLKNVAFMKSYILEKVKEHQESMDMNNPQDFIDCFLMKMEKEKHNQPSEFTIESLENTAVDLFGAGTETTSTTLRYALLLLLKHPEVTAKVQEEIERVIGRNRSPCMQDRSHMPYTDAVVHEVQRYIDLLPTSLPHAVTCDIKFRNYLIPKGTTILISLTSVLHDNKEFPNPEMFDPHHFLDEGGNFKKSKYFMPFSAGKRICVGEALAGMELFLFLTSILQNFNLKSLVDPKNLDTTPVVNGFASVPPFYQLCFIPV
# Chain of Mothers against decapentaplegic homolog 3 (P84022 whole entry): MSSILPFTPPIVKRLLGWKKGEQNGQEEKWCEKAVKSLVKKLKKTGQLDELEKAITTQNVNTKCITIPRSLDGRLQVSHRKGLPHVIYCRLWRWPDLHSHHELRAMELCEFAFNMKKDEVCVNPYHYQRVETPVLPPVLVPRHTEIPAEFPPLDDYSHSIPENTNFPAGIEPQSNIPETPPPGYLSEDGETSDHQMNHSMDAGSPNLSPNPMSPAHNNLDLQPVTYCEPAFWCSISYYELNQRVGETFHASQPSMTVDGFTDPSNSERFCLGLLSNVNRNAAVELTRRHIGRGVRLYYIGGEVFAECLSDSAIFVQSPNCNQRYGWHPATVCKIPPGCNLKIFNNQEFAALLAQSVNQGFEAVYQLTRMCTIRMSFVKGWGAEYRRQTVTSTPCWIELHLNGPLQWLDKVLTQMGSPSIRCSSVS
smiles,measurement,setting,value
COc1cccc(C(c2cc3c(cc2O)OCO3)N2CCOCC2)c1OC (stereo not given),IC50,[1],6.43 µM (not active)
CCOc1ccc(C(C)NC(=O)c2ccccc2OCc2c(C)noc2C)cc1OCC (stereo not given),AC50,[2],113 µM (active)
CC(C)(C)N1CCC1CN (stereo not given),EC50,[3],> 55.7 µM (not active)
same,EC50,[4],> 55.7 µM (not active)
N#C/C(=C(/O)CCl)c1nc2c(s1)CCc1ccccc1-2,IC50,[5],17.4 µM (active)
same,EC50,[6],> 150 µM (not active)
same,EC50,[7],> 150 µM (not active)
same,EC50,[8],> 150 µM (not active)
Cc1nc([N+](=O)[O-])cn1CCC#N,EC50,[3],> 55.7 µM (not active)
same,EC50,[4],> 55.7 µM (not active)
CC1CCN(CC(CS(=O)(=O)c2ccc([N+](=O)[O-])cc2)N2CCC(C)CC2)CC1 (stereo not given),AC50,[9],> 70 µM (inactive)
same,AC50,[10],1.59 µM (active)
same,CC50,[11],7.41 µM (active)
same,AC50,[12],> 70 µM (inactive)
same,AC50,[13],6.62 µM (active)
O=C(CCN1C(=O)/C(=C/c2cccc(Br)c2)SC1=S)NNC(=O)c1cccnc1,EC50,[14],83.8 µM (not active)
same,AC50,[15],1.58 µM (inconclusive)
same,AC50,[16],447 nM (inconclusive)
CCN(C(=O)COC(=O)CCCOc1ccc(Cl)cc1C)c1c(N)n(Cc2ccccc2)c(=O)[nH]c1=O,AC50,[2],43.7 µM (active)
O=C1OC2(c3ccc(O)cc3Oc3cc(O)ccc32)c2ccccc21 [FLUORESCEIN],IC50,[1],4.89 µM (not active)

# From ChEMBL document CHEMBL1201862, “PubChem BioAssay data set” (2004)
